PubChem BioAssay (NCI)
Values joined by “and” are separate entries in the source; they are usually repeats but may differ in a detail not shown here. Equal entries are not always repeated.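 Interpolation was linear, between the two tested concentrations surrounding the appropriate level; five concentrations were tested over 48 hours in 96-well plates. GI50: concentration for 50% inhibition of growth. TGI: concentration producing complete growth inhibition.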

Key:
Assay in all cases: inhibition of tumour cell growth, NCI panel, 48 h
NCI-H522 lung = test system: NCI-H522 lung
RXF 393 renal = test system: RXF 393 renal
CCRF-CEM leukemia = test system: CCRF-CEM leukemia
HL-60(TB) leukemia = test system: HL-60(TB) leukemia
UACC-62 melanoma = test system: UACC-62 melanoma
T-47D breast = test system: T-47D breast
SN12C renal = test system: SN12C renal
SK-MEL-28 melanoma = test system: SK-MEL-28 melanoma
RPMI-8226 leukemia = test system: RPMI-8226 leukemia
MOLT-4 leukemia = test system: MOLT-4 leukemia

Row | SMILES | TGI (NCI-H522 lung) [µM] | TGI (RXF 393 renal) [µM] | TGI (CCRF-CEM leukemia) [µM] | TGI (HL-60(TB) leukemia) [µM] | TGI (UACC-62 melanoma) [µM] | TGI (T-47D breast) [µM] | TGI (SN12C renal) | TGI (SK-MEL-28 melanoma) | TGI (RPMI-8226 leukemia) [µM] | TGI (MOLT-4 leukemia) [µM] | GI50 (NCI-H522 lung) [µM] | GI50 (SK-MEL-28 melanoma) [µM] | GI50 (RXF 393 renal) [µM] | GI50 (CCRF-CEM leukemia) [µM] | GI50 (MOLT-4 leukemia) [µM] | GI50 (HL-60(TB) leukemia) [µM] | GI50 (UACC-62 melanoma) [µM] | GI50 (SN12C renal) [µM] | GI50 (RPMI-8226 leukemia) [µM] | GI50 (T-47D breast) [µM]
1 | C[N+](C)([O-])CCCNc1c2ccccc2nc2cccc([N+](=O)[O-])c12 | 0.67 | 0.349 | 1.96 | 4.22 | 0.491 | 3.62 | 1.43 µM |  |  |  |  |  |  |  |  |  |  |  |  | 
2 | Cc1ccc(NC(=S)Nc2c(C)n(C)n(-c3ccccc3)c2=O)cc1 | > 100 | > 100 | > 100 | > 100 | > 100 |  |  | > 100 µM | > 100 | > 100 |  |  |  |  |  |  |  |  |  | 
3 | N/N=C1/C(=N/O)CCc2nonc21 |  | > 100 | > 100 | > 100 | > 100 | > 100 | > 100 µM | > 100 µM | > 100 | > 100 |  |  |  |  |  |  |  |  |  | 
4 | Cn1c(-c2ccc[se]2)ccc1-c1ccc(CO)[se]1 | > 100 | 6.26 | > 100 | > 100 | > 100 |  | > 100 µM | > 100 µM | > 100 | 98.2 |  |  |  |  |  |  |  |  |  | 
5 | COc1ccc(Oc2nc3ccc(C(F)(F)F)cc3nc2-c2ccccc2)cc1 | > 100 | > 100 | > 100 | > 100 | > 100 |  | > 100 µM | > 100 µM | > 100 | > 100 |  |  |  |  |  |  |  |  |  | 
6 | CC1CCc2c(sc3ncnc(N/N=C/c4ccc(Cl)c(Cl)c4)c23)C1 (centres undefined) | 21 | 70.3 | 41.6 | > 100 | 64.5 |  | > 100 µM | > 100 µM | > 100 | > 100 |  |  |  |  |  |  |  |  |  | 
7 | Fc1ccc(C2CC(c3cccc(Nc4ccncc4)c3)=NN2c2cc(Cl)cc(Cl)c2)cc1 (centres undefined) | 3.9 | 2.99 | > 100 | 5.14 | 3.27 |  | 3.16 µM | 3.31 µM |  | 5.23 | 1.88 | 1.74 | 1.59 | 2.9 | 2.23 | 2.25 | 1.74 | 1.69 |  | 
8 | S=c1nc2[nH]c3ccc(Br)cc3c2n[nH]1 | > 100 | > 100 |  | 50.5 | > 100 | > 100 | > 100 µM | > 100 µM | > 100 | > 100 |  |  |  |  |  |  |  |  |  | 
9 | O=C1OC2(C(F)(F)F)Oc3ccccc3CN2C12CCCCC2 (centres undefined) | 83.3 | 48.9 | 62.7 | 40.5 | > 100 | > 100 | > 100 µM | > 100 µM |  | 54.3 |  |  |  |  |  |  |  |  |  | 
10 | CN(C)CCCNc1c2ccccc2nc2cccc([N+](=O)[O-])c12 | < 0.001 |  | 0.196 | 0.0721 |  |  | 0.0137 µM and 0.0343 µM | 0.00689 µM and 0.0422 µM |  | 0.052 |  | 0.0202 |  | 0.029 |  | 0.0175 |  |  |  | 
11 | CC(=O)NC1=C(C)C(=O)c2c(nc3n2CCC3O)C1=O (centres undefined) | 68.2 | 48.3 | 39.3 | 44.2 | 38.2 |  | > 100 µM | > 100 µM | 50.6 | 16.6 |  |  |  |  |  |  |  |  |  | 
12 | Cc1cn(CC2=NCCCN2)c(=O)[nH]c1=O | > 100 | > 100 | > 100 |  | > 100 | > 100 | > 100 µM | > 100 µM | > 100 | > 100 |  |  |  |  |  |  |  |  |  | 
13 | O=C(Nc1c(Cl)cc([N+](=O)[O-])cc1Cl)C(=O)C1C(=O)NC(=S)NC1=O | > 100 | > 100 | > 100 | > 100 | > 100 | > 100 | > 100 µM | > 100 µM | > 100 |  |  |  |  |  |  |  |  |  |  | 
14 | COc1ccccc1NC(=S)N/N=C(/C)c1ccccn1 | > 100 | 23.4 | 0.0737 | 2.08 |  |  | 6.73 µM | > 100 µM | > 100 | > 100 |  |  |  |  |  |  |  |  |  | 
15 | CCOC(=O)/C(C#N)=C/c1ccc(CO)o1 | > 100 | > 100 |  |  | > 100 | > 100 | > 100 µM | > 100 µM | > 100 | > 100 |  |  |  |  |  |  |  |  |  | 
16 | CC(NC(=O)OCc1ccccc1)NC(=O)C(CC(=O)OC(C)(C)C)NC(=O)OC(C)(C)C (centres undefined) | > 100 | > 100 | > 100 |  | > 100 | > 100 | > 100 µM | > 100 µM | > 100 | > 100 |  |  |  |  |  |  |  |  |  | 
17 | O=C(NNc1cn[nH]c(=O)c1Cl)/C(=C/c1ccc2c(c1)OCO2)NC(=O)c1ccccc1 |  |  |  |  | > 100 | > 100 | > 100 µM | > 100 µM |  | > 100 |  |  |  |  |  |  |  |  |  | 
18 | Cc1ccc(C)c(COCCOCn2cc(Br)c(N)nc2=O)c1 | > 100 | > 100 | > 100 | > 100 | > 100 | > 100 | > 100 µM | > 100 µM |  | > 100 |  |  |  |  |  |  |  |  |  | 
19 | CCCC(CC)c1c(O)c(O)c(C(CC)CCC)c(C(CC)CCC)c1C(CC)CCC (centres undefined) | > 10 | > 10 | > 10 | > 10 | > 10 | > 10 | > 10 µM | > 10 µM | > 10 |  |  |  |  |  |  |  |  |  |  | 
20 | CCc1nn(S(=O)(=O)c2ccc(C)cc2)c2c1CS(=O)(=O)CC2 |  | > 100 |  |  | > 100 | > 100 | > 100 µM | > 100 µM | > 100 | > 100 |  |  |  |  |  |  |  |  |  | 
21 | CCNC(=O)/C=C/CCC#Cc1ccc(-c2ccc(-c3cccs3)s2)s1 | > 100 | > 100 | > 100 | > 100 | > 100 |  |  |  | > 100 | > 100 |  |  |  |  |  |  |  |  |  | 
22 | CCOC(=O)c1c2c(n3ccc(NC(=O)OC(C)(C)C)cc13)C(=O)c1ncccc1C2=O | 0.817 |  |  | 0.38 | 0.639 | 5.31 | 1.21 µM | 1.4 µM | 3.16 | 7.52 | 0.179 | 0.232 |  |  | 0.78 | 0.0256 | 0.138 | 0.071 | 0.387 | 0.382
